Assay results as given in patent US20260097111A1, “ETHER LIPIDS FOR HYPERACTIVATION OF MAMMALIAN DENDRITIC CELLS” (priority 2022, published 2026).

Columns and labels:
[1] = test system: human moDC; assay: Staining moDC for activation marker expression; assay type: cell-based
Experimental: Staining moDC for Activation Marker Expression. After treatment and supernatant collection, cells were resuspended in 200 μL/well PBS and transferred to 96-well V-bottom plates. To pellet cells and remove supernatant, plates were spun at 400×g for 4 min for this and subsequent steps. Cells were washed again with 200 μL/well PBS and pelleted. Live/dead Near-IR staining dye was diluted 1000-fold in PBS. […] Fc block was diluted 100-fold in FACS buffer, and 100 μL/well was added to cells. Cells were incubated with Fc block for 10 min at 4° C. During incubation primary CCR7 antibody (clone 2H4) was diluted 100-fold in FACS buffer. Cells were pelleted and primary CCR7 antibody was added at 100 μL/well. Cells were incubated at 37° C. for 30 min. Biotinylated rat anti-mouse IgM secondary was prepared by diluting 200-fold in FACS buffer. Cells were washed twice with FACS buffer before 100 μL/well secondary antibody was added. Cells were incubated at 4° C. for 20 min. Tertiary staining antibody cocktail was prepared in a mixture of FACS buffer and Brilliant Stain Buffer (1:1 volume ratio of each buffer). […], CD11c (PE-Cy7), CD209 (PE), CD40 (UV563), CD83 (UV737), CD86 (BV711), and HLA-DR (UV395) were all diluted 200-fold. HLA-ABC (BV605) was diluted 100-fold. […]
For flow cytometry analysis, fluorescence compensation was set up using compensation […]. […]

[2] = test system: human moDCs; assay: In vitro transwell migration assay towards CCL19; assay type: cell-based; settings: donor HD87, 10 ng/mL CCL19; FIG. 34A
Experimental: In Vitro Transwell Migration Assay. To test the capacity of human dendritic cells to migrate, an in vitro migration assay was set up. After differentiation into moDC using GM-CSF and IL-4, cells were plated on 10 cm petri dishes at 4×10^6 cells/plate in R10++. Cells were treated with various combinations of 2.85 μM R848, 82.5 μM DGP, and 10 μM MCC950 (final concentrations). Additionally, 50 ng/mL GM-CSF and 25 ng/mL IL-4 was added to the plates. Cell cultures were incubated in a total of 8 mL/plate in a 37° C. incubator on an orbital shaker set at 100 rpm overnight.
Cells were collected from plates and any remaining cells on plates were washed off the plates using PBS. After pelleting cells at 400×g for 5 min, cells were resuspended in R10++ and counted. Cell concentrations were adjusted to 5×10^5 cells/mL and plated in triplicate in the apical chambers of transwells at 1.5×10^5 cells/well. R10++ media containing 0; 20; or 200 ng/mL CCL19 were prepared and added to the basal chambers at 300 μL/well. For each cell treatment condition, control wells without transwell inserts were plated with an equivalent volume of cells and R10++ media. […]
To enumerate migrated DCs, an absolute count was obtained based on the total events acquired of counting beads and live, CD11c+CD209+ single cells. […] Finally, migration was calculated relative to cells treated with only R848 with no CCL19 added.

| SMILES | percentage of CD83+ cells ([1]; 2.85 μM R848 and/or 82.5 μM DGP, overnight, FIG. 24A) | CD86 MFI ([1]; FIG. 25B) | migration to the basal chamber [2] |
| --- | --- | --- | --- |
| CCCCCCCCCCCCCCCCCCCCCCOC[C@@H](O)COP(=O)(O)O [Compound 2, 1-docosyl-sn-glycerol-3-phosphate] | increased CD83 expression, but increase was not found to be statistically significant | significant increases in CD86 expression as compared to unstimulated cells | – |
| CC(C)(O)c1coc(S(=O)(=O)NC(=O)Nc2c3c(cc4c2CCC4)CCC3)c1 [MCC950, reference compound] | – | – | did not inhibit the hypermigration observed with R848+DGP |
